Earlier results, collected in article PMC3368153 (Nature chemical biology, 2012).

Key:
γ2 F77Y GABAAR = details: versus wild type
γ2 F77I GABAAR = details: versus wild type
α1 Y209A GABAAR = details: versus wild type
α1 H101C GABAAR = details: versus wild type
[1] = tested on: α1 His101 replaced by glutamine, GABAAR; details: versus wild type

CN1C(=O)CN=C(c2ccccc2)c2cc(Cl)ccc21 [diazepam]
affinity loss (factor), γ2 F77Y (γ2 F77Y GABAAR): 250 | loss of affinity (factor), γ2 F77I (γ2 F77I GABAAR): 4-5 | decrease in binding affinity (factor), α1 Y209A (α1 Y209A GABAAR): 40 | tolerance of point mutation γ2 F77L (affinity) (γ2 F77L GABAAR): tolerated well

CCOC(=O)c1ncn2c1CN(C)C(=O)c1cc(F)ccc1-2 [flumazenil]
loss of affinity (factor), γ2 F77I (γ2 F77I GABAAR): 2,000 | decrease in binding affinity (factor), α1 Y209A (α1 Y209A GABAAR): 41 | tolerance of point mutation γ2 F77L (affinity) (γ2 F77L GABAAR): tolerated well | affinity in α1 H101R mutant (α1 H101R mutation GABAAR): tolerate this mutation

CN1C(=O)CN=C(c2ccccc2F)c2cc([N+](=O)[O-])ccc21 [flunitrazepam]
loss of affinity (factor), cysteine at α1 His101 (α1 H101C GABAAR): 200 | loss of affinity (factor), glutamine at α1 His101 [1]: 15 | affinity in α1 H101R mutant (α1 H101R mutation GABAAR): drastically reduced affinity

Ro15-8670
loss of affinity (factor), γ2 F77I (γ2 F77I GABAAR): 4-5

dichlorodiazepam
affinity loss (factor), γ2 F77Y (γ2 F77Y GABAAR): 700

monochlorodiazepam
affinity loss (factor), γ2 F77Y (γ2 F77Y GABAAR): 530
